Values quoted from earlier work in publication PMC4365270 (Cancer Chemotherapy and Pharmacology, 2015).

Set-up: method as in earlier work
Conditions: higher doses; cited from earlier work

CC[C@H](NC(=O)[C@H](C)NC)C(=O)N1C[C@@H](O)C[C@H]1Cc1c(-c2[nH]c3cc(F)ccc3c2C[C@@H]2C[C@H](O)CN2C(=O)[C@H](CC)NC(=O)[C@H](C)NC)[nH]c2cc(F)ccc12 [birinapant]
Bell’s Palsy syndrome: increased incidence
